According to PubChem BioAssay (NCI):
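A five-concentration, 48-hour dose response in 96-well plates underlies each endpoint, interpolated linearly between surrounding concentrations. GI50 = concentration required for 50% inhibition of growth. TGI: concentration producing complete growth inhibition.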

These compounds were tested on A498 renal (assay: NCI tumour cell line growth inhibition, 48 h).

Structure (SMILES) | TGI | GI50
Cc1nc(N)sc1C(=O)/C=C\c1ccc2c(c1)OCO2 | > 100 µM | –
COc1cc(C(C)O)c[n+](CCc2c[nH]c3ccccc23)c1 (stereo unspecified) | > 100 µM | –
CC1(C)SCc2nc3ncccc3n21 | > 100 µM | –
Cc1cn(C2CC(O)C(CO)O2)c(=O)n2nnnc12 (stereo unspecified) | > 100 µM | –
COc1ccc(C(=O)C(C(=O)CCC(=O)Nc2cccc(Cl)c2)c2ccc(OC)cc2)cc1 (stereo unspecified) | > 100 µM | –
CCOC(=O)C1=C(C)N(NC(=O)Nc2ccccc2)C(=O)C1=P(c1ccccc1)(c1ccccc1)c1ccccc1 | > 100 µM | –
Nn1c(=O)n(Cc2ccccc2)n(-c2ccccc2)c1=O | > 100 µM | –
Cc1cccc(N2CCN(C(=S)c3ccc4c(c3)OCO4)CC2)c1 | 67.9 µM | 0.799 µM
Cc1ccc(C2=C(c3ccccc3)C(Br)(c3ccc(C)cc3)C(c3ccccc3)=C2c2ccc(C)cc2)cc1 | > 100 µM | –
N#CCN1C(=O)c2cccc3cc([N+](=O)[O-])cc(c23)C1=O | > 100 µM | –
O=C1CCN2C(=O)CCN12 | > 100 µM | –
Cc1ccc(C(=O)CN(/C=C/C(=O)C(F)(F)F)c2ccc(S(N)(=O)=O)cc2)cc1 | > 100 µM | > 100 µM
CC1CC[C@]2(C(=O)O)CCC3(C)C(=CC(=O)C4[C@@]5(C)CCC(=O)C(C)(C)C5CC[C@]43C)[C@@H]2[C@H]1C (stereo partly specified) | > 100 µM | –
COc1ccccc1CCc1cc(OC)c(OC)c(OC)c1 | > 100 µM | –
COc1cc2c(cc1OC)C(CC(=O)NN=C(C)C)NCC2 (stereo unspecified) | > 100 µM | –
COC(=O)/C(=N\Nc1nnc(C)n1N)C(C#N)c1ccc(Cl)cc1 (stereo unspecified) | > 100 µM | –
Cc1cccc(NC(=O)C(=O)C(C(=O)c2ccc3ccccc3c2)C2OC(=O)c3ccccc32)c1C (stereo unspecified) | 24.2 µM | –
CS/C(N)=N\NC(=O)CCC(=O)Nc1ccccc1C(F)(F)F | > 100 µM | –
CC(C)(C)c1ccc2c(c1)S(=O)(=O)Nc1ccccc1NS(=O)(=O)c1cc(C(C)(C)C)ccc1OCCOCCOCCO2 | > 100 µM | –
COc1cc(/C=C/c2cc(/C=C/c3ccc(O)c(OC)c3)n(C(=O)Nc3ccc(F)c(Cl)c3)n2)ccc1O | 2.1 µM | 0.783 µM
CC(=O)[O-].CCN(CC)c1ccc(C=NCCN=Cc2ccc(N(CC)CC)cc2[O-])c([O-])c1.[Mn+3] | 53.1 µM | 22.9 µM
CCC[CH2][Sn]1([CH2]CCC)[O]CC(CN2CCCC2)[O]1 (stereo unspecified) | 46.9 µM | 28.5 µM
CC1(C)C(=O)N(CCCCCCN2C(=O)C(C)(C)c3ccccc32)c2ccccc21 | > 100 µM | –
CCOc1ccccc1NC(=O)CC(C(=O)OC)C(=O)C(=O)OC (stereo unspecified) | > 100 µM | –
C[C@@]12CC=C3c4nc(Nc5cccc(O)c5)sc4CC[C@]3(C)[C@H]1CC[C@]1(C)C(=O)CC[C@@H]21 | 75.8 µM | 18 µM
COC(=O)C1=C(C)N(NC(=O)OC(C)(C)C)C(=O)C1=P(c1ccccc1)(c1ccccc1)c1ccccc1 | > 100 µM | –
O=C1OC(c2ccccc2)=N/C1=C\c1cccc2ccccc12 | > 100 µM | –
Cc1cccc(NC(=O)/C(=N\NC(C)(C)C)C2NC(=S)NC2=O)c1C (stereo unspecified) | > 100 µM | –
C[C@@H]1CC(=O)C2CCCC1C2=O (stereo partly specified) | > 100 µM | –

Each compound was assayed on A549 NSCLC (assay: NCI tumour cell line growth inhibition, 48 h).

Structure (SMILES) | TGI | GI50
Cc1nc(N)sc1C(=O)/C=C\c1ccc2c(c1)OCO2 | > 100 µM | –
COc1cc(C(C)O)c[n+](CCc2c[nH]c3ccccc23)c1 (stereo unspecified) | > 100 µM | –
CC1(C)SCc2nc3ncccc3n21 | > 100 µM | –
Cn1c(=O)c(C(c2ccc([N+](=O)[O-])cc2)c2c(O)c3ccccc3n(C)c2=O)cc2ccccc21 (stereo unspecified) | > 100 µM | –
Cc1cn(C2CC(O)C(CO)O2)c(=O)n2nnnc12 (stereo unspecified) | > 100 µM | –
COc1ccc(C(=O)C(C(=O)CCC(=O)Nc2cccc(Cl)c2)c2ccc(OC)cc2)cc1 (stereo unspecified) | > 100 µM | –
CCOC(=O)C1=C(C)N(NC(=O)Nc2ccccc2)C(=O)C1=P(c1ccccc1)(c1ccccc1)c1ccccc1 | > 100 µM | –
COc1cc(C=C2C(=O)NC(=O)NC2=O)cc(OC)c1OC | > 100 µM | –
Nn1c(=O)n(Cc2ccccc2)n(-c2ccccc2)c1=O | > 100 µM | –
NCC1Nc2ccccc2[C@@H](O)C1O (stereo partly specified) | > 100 µM | –
Cc1cccc(N2CCN(C(=S)c3ccc4c(c3)OCO4)CC2)c1 | > 100 µM | 1.07 µM
Cc1cc(C(=O)Nc2ncc(Cc3cccc(C(F)(F)F)c3)s2)c2ccccc2n1 | > 100 µM | 3.19 µM
Cc1ccc(C2=C(c3ccccc3)C(Br)(c3ccc(C)cc3)C(c3ccccc3)=C2c2ccc(C)cc2)cc1 | > 100 µM | –
N#CCN1C(=O)c2cccc3cc([N+](=O)[O-])cc(c23)C1=O | > 100 µM | –
